Reference: patent US20100113437A1, “Active Compound Combinations Having Insecticidal and regular, utility” (BAYER CROPSCIENCE AG, priority 2006, published 2010)

Legend:
[1] = test system: Spodoptera frugiperda larvae; test: Spodoptera frugiperda larvae test (Example F, spray); type: in vivo; conditions: single active compound
[2] = test system: Phaedon cochleariae larvae; test: Phaedon cochleariae larvae test (Example D, spray); conditions: single active compound
[3] = test system: Myzus persicae; test: Myzus persicae test (Example C, cabbage leaves sprayed, DMF); type: in vivo; conditions: single active compound
[4] = test system: Aphis gossypii; test: Aphis gossypii test (Example A, cotton leaves dipped); type: in vivo; conditions: single active compound; for Kill in % after 1d: 100 ppm; for Kill in % after 6d: 0.8 ppm
[5] = test system: Spodoptera frugiperda larvae; test: Spodoptera frugiperda larvae test (Example G, leaf dip); type: in vivo; conditions: single active compound; for Kill in % after 2d: 100 ppm; for Kill in % after 3d: 4 ppm
[6] = test system: Myzus persicae; test: Myzus persicae test (Example B, cabbage leaves sprayed, acetone/DMF); type: in vivo; conditions: single active compound
[7] = test system: Plutella xylostella; test: Plutella xylostella test (Example E, leaf dip); type: in vivo; conditions: 0.8 ppm, single active compound
[8] = test system: Tetranychus urticae; test: Tetranychus test, OP-resistant/spray treatment (Example H); type: in vivo; conditions: single active compound; for Kill in % after 6d: 0.8 g/ha
Description: Disks of bean leaves (Phaseolus vulgaris) which are infested by all stages of the greenhouse red spider mite (Tetranychus urticae) are sprayed with an active compound preparation of the desired concentration.
After the desired period of time, the activity in % is determined.

N#Cc1ccc(CC(=NNC(=O)Nc2ccc(OC(F)(F)F)cc2)c2cccc(C(F)(F)F)c2)cc1 (mixture of isomers) [metaflumizone]
Kill in % after 6d ([1]; 20 g/ha): 83% | Kill in % after 6d ([2]; 100 g/ha): 0%

CNC(=O)c1cc(Cl)cc(C)c1NC(=O)c1cc(Br)nn1-c1ncccc1Cl [Rynaxapyr]
Kill in % after 1d ([3]; 4 ppm): 35% | Kill in % after 2d ([1]; 0.8 g/ha): 67% | Kill in % after 1d [4]: 75%

CO[C@H]1CC[C@]2(CC1)NC(=O)C(c1cc(C)ccc1C)=C2O [compound (I)]
Kill in % after 1d ([3]; 4 ppm): 0% | Kill in % after 1d ([3]; 20 ppm): 15% | Kill in % after 2d [5]: 0% | Kill in % after 1d [4]: 0%

CCOC(=O)OC1=C(c2cc(C)ccc2C)C(=O)N[C@]12CC[C@@H](OC)CC2 [compound (II)]
Kill in % after 1d ([6]; 20 g/ha): 10% | Kill in % after 1d ([6]; 100 g/ha): 10% | Kill in % after 3d [5]: 0% | Kill in % after 6d ([1]; 0.16 g/ha): 0% | Kill in % after 6d ([1]; 0.8 g/ha): 0% | Kill in % after 2d ([1]; 4 g/ha): 0% | Kill in % after 2d ([1]; 20 g/ha): 0% | Kill in % after 6d ([1]; 20 g/ha): 0% | Kill in % after 6d [7]: 10% | Kill in % after 6d ([2]; 20 g/ha): 17% | Kill in % after 6d ([2]; 100 g/ha): 50% | Kill in % after 6d [8]: 50% | Kill in % after 2d ([8]; 20 g/ha): 10% | Kill in % after 2d ([8]; 100 g/ha): 20% | Kill in % after 6d [4]: 0%

CCOC(=O)OC1=C(c2cc(C)ccc2C)C(=O)NC12CCC(OC)CC2 (centres unmarked) [compound (IIa)]
Kill in % after 1d ([6]; 20 g/ha): 0% | Kill in % after 1d ([6]; 100 g/ha): 0% | Kill in % after 3d [5]: 0% | Kill in % after 6d ([1]; 0.16 g/ha): 0% | Kill in % after 6d ([1]; 0.8 g/ha): 0% | Kill in % after 2d ([1]; 4 g/ha): 0% | Kill in % after 2d ([1]; 20 g/ha): 0% | Kill in % after 6d ([1]; 20 g/ha): 0% | Kill in % after 6d [7]: 80% | Kill in % after 6d ([2]; 20 g/ha): 0% | Kill in % after 6d ([2]; 100 g/ha): 67% | Kill in % after 6d [8]: 60% | Kill in % after 2d ([8]; 20 g/ha): 0% | Kill in % after 2d ([8]; 100 g/ha): 10% | Kill in % after 6d [4]: 0%

COC1CCC2(CC1)NC(=O)C(c1cc(C)ccc1C)=C2O (centres unmarked) [compound (Ia)]
Kill in % after 1d ([3]; 4 ppm): 0% | Kill in % after 1d ([3]; 20 ppm): 10% | Kill in % after 2d [5]: 0% | Kill in % after 1d [4]: 0%

CC[S+]([O-])c1c(C#N)nn(-c2c(Cl)cc(C(F)(F)F)cc2Cl)c1N (centres unmarked) [ethiprole]
Kill in % after 2d ([8]; 20 g/ha): 20%

N#Cc1nn(-c2c(Cl)cc(C(F)(F)F)cc2Cl)c(N)c1[S+]([O-])C(F)(F)F (centres unmarked) [fipronil]
Kill in % after 1d ([6]; 20 g/ha): 20% | Kill in % after 1d ([3]; 20 ppm): 10% | Kill in % after 6d [8]: 0%

Cc1cc(C(F)(C(F)(F)F)C(F)(F)F)ccc1NC(=O)c1cccc(I)c1C(=O)NC(C)(C)CS(C)(=O)=O [flubendiamide]
Kill in % after 6d ([1]; 0.8 g/ha): 50%

O=C(NC(=O)c1c(F)cccc1F)Nc1ccc(Oc2ccc(C(F)(F)F)cc2Cl)cc1F [flufenoxuron]
Kill in % after 6d ([1]; 0.16 g/ha): 83% | Kill in % after 6d ([2]; 20 g/ha): 50%

O=C(NC(=O)c1c(F)cccc1F)Nc1cc(Cl)c(OC(F)(F)C(F)C(F)(F)F)cc1Cl (centres unmarked) [lufenuron]
Kill in % after 2d [5]: 40% | Kill in % after 2d ([1]; 20 g/ha): 50% | Kill in % after 6d ([2]; 20 g/ha): 83%

O=C(NC(=O)c1ccccc1Cl)Nc1ccc(OC(F)(F)F)cc1 [triflumuron]
Kill in % after 1d ([6]; 100 g/ha): 0% | Kill in % after 2d ([8]; 100 g/ha): 0%

emamectin benzoate
Kill in % after 6d [4]: 15%
